Legend:
[1] = biological target: Recombinant Human NF-kappaB-Inducing Kinase (NIK/MAP3K14) (Homo sapiens, UniProt Q99558); assay: Biological Assay A2: inhibition of auto-phosphorylation of recombinant human NIK/MAP3K14 (AlphaScreen); assay type: biochemical; conditions: auto-phosphorylation; averaged over all measurements on all batches; read-out: αscreen IC50
Method: Inhibition of Auto-Phosphorylation of Recombinant Human NF-kappaB-Inducing Kinase (NIK/MAP3K14) Activity (AlphaScreen®)
NIK/MAP3K14 auto-phosphorylation activity was measured using the AlphaScreen® (αscreen) format (Perkin Elmer). All compounds tested were dissolved in dimethyl sulfoxide (DMSO) and further dilutions were made in assay buffer. Final DMSO concentration was 1% (v/v) in assays. Assay buffer was 50 mM Tris pH 7.5 containing 1 mM EGTA (ethylene glycol tetraacetic acid), 1 mM DTT (dithiothreitol), 0.1 mM Na3VO4, 5 mM MgCl2, 0.01% Tween 20. Assays were carried out in 384 well Alphaplates (Perkin Elmer). Incubations consisted of compound, 25 microM Adenosine-5′-triphosphate (ATP), and 0.2 nM NIK/MAP3K14. Incubations were initiated by addition of GST-tagged NIK/MAP3K14 enzyme, carried out for 1 h at 25° C. and terminated by addition of stop buffer containing anti-phospho-IKK Ser176/180 antibody. Protein A Acceptor and Glutathione-Donor beads were added before reading using an EnVision® Multilabel Plate Reader (Perkin Elmer). Signal obtained in the wells containing blank samples was subtracted from all other wells and IC50's were determined by fitting a sigmoidal curve to % inhibition of control versus Log10 compound concentration.

[2] = test system: LP-1 cells; assay: Biological Assay C: antiproliferative activity on LP-1 cells (CellTiter-Glo); assay type: cell-based, human; conditions: 72 hr treatment, averaged values
Method: (§1) Determination of Antiproliferative Activity on LP-1, L-363 and JJN-3 Cells
(§2) All compounds tested were dissolved in DMSO and further dilutions were made in culture medium. Final DMSO concentration was 0.3% (v/v) in cell proliferation assays. Viability was assessed using CellTiter-Glo cell viability assay kit (Promega). The human LP-1, L-363 and JJN-3 cells (DSMZ) were cultured in RPMI 1640 medium supplemented with 2 mM L-glutamine, and 10% fetal calf serum (PAA). Cells were routinely kept as suspension cells at 37° C. in a humidified 5% CO2 atmosphere. Cells were passaged at a seeding density of 0.2×10^6/ml twice a week. Cells were seeded in black tissue culture treated 96-well plates (Perkin Elmer). Densities used for plating ranged from 2,000 to 6,000 cells per well in a total volume of 75 μl medium. After twenty four hours, drugs and/or solvents were added (25 μl) to a final volume of 100 μl. Following 72 hr of treatment plates were removed from the incubator and allowed to equilibrate to room temperature for approx 10 min. 100 μl CellTiter-Glo reagent was added to each well that was then covered (Perkin Elmer Topseal) and shaken on plate shaker for 10 min. Luminescence was measured on a HTS Topcount (Perkin Elmer). Within an experiment, the results for each treatment were the mean of 2 replicate wells. For initial screening purposes, compounds were tested using a 9 point dilution curve (serial 1:3 dilutions). For each experiment, controls (containing no drug) and a blank incubation (containing cells read at the time of compound addition) were run in parallel. The blank value was subtracted from all control and sample values. For each sample, the mean value for cell growth (in relative light units) was expressed as a percentage of the mean value for cell growth of the control.

[3] = test system: L-363 cells; assay: Biological Assay C: antiproliferative activity on L-363 cells (CellTiter-Glo); assay type: cell-based, human; conditions: 72 hr treatment, averaged values
Method: as §1, §2

[4] = test system: JJN-3 cells; assay: Biological Assay C: antiproliferative activity on JJN-3 cells (CellTiter-Glo); assay type: cell-based, human; conditions: 72 hr treatment, averaged values
Method: as §1, §2

Recombinant Human NF-kappaB-Inducing Kinase (NIK/MAP3K14), sequence (Q99558 whole entry): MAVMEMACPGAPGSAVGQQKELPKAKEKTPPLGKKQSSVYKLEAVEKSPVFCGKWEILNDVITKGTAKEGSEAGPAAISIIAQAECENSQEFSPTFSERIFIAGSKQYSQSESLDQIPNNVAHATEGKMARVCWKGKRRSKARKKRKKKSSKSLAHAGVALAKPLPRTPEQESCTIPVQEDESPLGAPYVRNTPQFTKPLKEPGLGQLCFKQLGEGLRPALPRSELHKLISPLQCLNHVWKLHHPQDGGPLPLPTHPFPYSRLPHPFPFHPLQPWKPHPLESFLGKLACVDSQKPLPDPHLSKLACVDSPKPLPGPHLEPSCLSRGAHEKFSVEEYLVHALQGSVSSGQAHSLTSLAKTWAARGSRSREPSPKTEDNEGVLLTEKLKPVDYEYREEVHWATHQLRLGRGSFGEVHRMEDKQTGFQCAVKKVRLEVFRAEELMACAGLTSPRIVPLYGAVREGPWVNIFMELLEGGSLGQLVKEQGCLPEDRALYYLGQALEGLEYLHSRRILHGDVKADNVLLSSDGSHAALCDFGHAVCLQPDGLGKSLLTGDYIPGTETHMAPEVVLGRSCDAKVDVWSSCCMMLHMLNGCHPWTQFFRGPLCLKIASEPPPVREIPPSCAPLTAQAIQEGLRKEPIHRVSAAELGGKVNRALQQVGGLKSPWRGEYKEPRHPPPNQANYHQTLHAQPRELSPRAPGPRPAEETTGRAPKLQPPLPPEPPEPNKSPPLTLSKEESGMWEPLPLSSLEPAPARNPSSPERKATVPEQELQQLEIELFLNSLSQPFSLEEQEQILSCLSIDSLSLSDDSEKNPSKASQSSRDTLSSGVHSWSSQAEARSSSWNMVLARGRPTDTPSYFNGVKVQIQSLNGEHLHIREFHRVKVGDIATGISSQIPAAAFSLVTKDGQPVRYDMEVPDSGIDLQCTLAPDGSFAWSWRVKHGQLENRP

Row | Compound | IC50 [1] [nM] | EC50 [2] [nM] | EC50 [3] [nM] | EC50 [4] [nM] | EC50 ([3]; Homo sapiens, L-363, 72 h) [nM] | EC50 ([4]; Homo sapiens, JJN-3, 72 h) [nM] | EC50 ([2]; Homo sapiens, LP-1, 72 h) [nM]
1 | COCCCn1cc(-c2nc(N)ncc2F)c2cc(C#CC(C)(O)C3CC3)ncc21 (single isomer, unassigned) [Compound 119] | 230 | 2100 | 900 | 700 |  |  | 
2 | CC(O)(C#Cc1cc2c(-c3nc(N)ncc3F)cn(C3COC3)c2cn1)C1CC1 (single isomer, unassigned) [Compound 121] | 680 | 3400 | 1300 | 1400 |  |  | 
3 | CC(O)(C#Cc1cc2c(-c3nc(N)ncc3F)cn(C3CN(C4CC4)C3)c2cn1)C1CC1 (single isomer, unassigned) [Compound 157] | 46 |  |  |  | 140 | 180 | 
4 | CC(C)(O)C#Cc1cc2c(-c3nc(N)ncc3C#N)cn(CC3CCOCC3)c2cn1 [Compound 75] | 35 |  |  |  | 670 | 540 | > 10000
5 | CN1CCC(n2cc(-c3ccnc(N)n3)c3cc(C#CC(C)(C)O)ncc32)CC1 [Compound 77] | 88 |  |  |  | 320 | 570 | 4000
6 | CC(C)N1CCC(n2cc(-c3ccnc(N)n3)c3cc(C#CC(C)(C)O)ncc32)CC1 [Compound 78] | 130 |  |  |  | 410 | 580 | 2000
7 | CCN1CCC(n2cc(-c3ccnc(N)n3)c3cc(C#CC(C)(C)O)ncc32)CC1 [Compound 79] | 47 |  |  |  | 61 | 160 | 2000
8 | CC(C)N1CC(n2cc(-c3ccnc(N)n3)c3cc(C#CC(C)(C)O)ncc32)C1 [Compound 80] | 76 |  |  |  | 160 | 310 | 2500
9 | COCCCn1cc(-c2cc(C)nc(N)n2)c2cc(C#CC(C)(C)O)ncc21 [Compound 81] | 100 |  |  |  | 5900 | 5700 | 28000
10 | Cc1cnc(N)nc1-c1cn(CC2CCOCC2)c2cnc(C#CC(C)(C)O)cc12 [Compound 82] | 35 |  |  |  | 890 | 1100 | 13000
11 | COCCCn1cc(-c2nc(N)ncc2C)c2cc(C#CC(C)(C)O)ncc21 [Compound 83] | 86 |  |  |  | 550 | 670 | 4700
12 | COCCCn1cc(-c2ccnc(N)n2)c2cc(C#CC(C)(C)O)nc(C)c21 [Compound 84] | 68 |  |  |  | 22 | 67 | 250
13 | CCN1CCC(n2cc(-c3nc(N)ncc3F)c3cc(C#CC(C)(C)O)ncc32)CC1 [Compound 85] | 33 |  |  |  | 15 | 44 | 190
14 | COCCCn1cc(-c2nc(N)ncc2F)c2cc(C#CC(C)(C)O)nc(C)c21 [Compound 86] | 11 |  |  |  | 5.9 | 9.2 | 16
15 | COCCCn1cc(-c2nc(N)ncc2F)c2cc(C#CC3(O)CCCC3)ncc21 [Compound 87] | 9 |  |  |  | 450 | 530 | 1200
16 | COCCCn1cc(-c2nc(N)ncc2F)c2cc(C#CC(C)(O)C3CC3)ncc21 (centres unmarked) [Compound 88] | 15 |  |  |  | 110 | 130 | 220
17 | CNc1ncc(F)c(-c2cn(CCCOC)c3cnc(C#CC4(O)CCCC4)cc23)n1 [Compound 89] | 130 |  |  |  | 4200 | 3700 | 7600
18 | CNc1ncc(F)c(-c2cn(CCCOC)c3cnc(C#CC(C)(C)O)cc23)n1 [Compound 90] | 44 |  |  |  | 510 | 720 | 740
19 | COCCCn1cc(-c2nc(N)ncc2F)c2cc(C#CC(C)(O)c3cc(C)on3)ncc21 (centres unmarked) [Compound 91] | 12 |  |  |  | 470 | 1100 | 4900

Row | Compound | IC50 [1] [nM] | EC50 [2] [nM] | EC50 [3] [nM] | EC50 [4] [nM] | EC50 ([3]; Homo sapiens, L-363, 72 h) [nM] | EC50 ([4]; Homo sapiens, JJN-3, 72 h) [nM] | EC50 ([2]; Homo sapiens, LP-1, 72 h) [nM]
20 | COCCCn1cc(-c2nc(N)ncc2F)c2cc(C#CC(C)(C)O)nc(Cl)c21 [Compound 92] | 47 |  |  |  | 32 | 54 | 86
21 | COCCCn1cc(-c2nc(N)ncc2F)c2cc(C#CC3(O)CCCC3)nc(C3CC3)c21 [Compound 93] | 10 |  |  |  | 250 | 310 | 860
22 | Nc1ncc(F)c(-c2cn(C3COC3)c3c(C4CC4)nc(C#CC4(O)CCCC4)cc23)n1 [Compound 94] | 31 |  |  |  | 200 | 300 | 2700
23 | COCCCn1cc(-c2nc(N)ncc2F)c2cc(C#CC3(O)CCC3)ncc21 [Compound 95] | 7 |  |  |  | 95 | 150 | 470
24 | COCCCn1cc(-c2nc(N)ncc2F)c2cc(C#CC(C)(O)C3CC3)nc(C(F)F)c21 (centres unmarked) [Compound 96] | 170 |  |  |  | 6600 | > 10000 | > 10000
25 | COCc1cnc(N)nc1-c1cn(C(C)C)c2cnc(C#CC(C)(O)C3CC3)cc12 (centres unmarked) [Compound 143] | 74 |  |  |  | 170 | 270 | 
26 | COCc1cnc(N)nc1-c1cn(C(C)C)c2cnc(C#CC(C)(C)O)cc12 [Compound 144] | 37 |  |  |  | 16 | 35 | 
27 | CC(O)(C#Cc1cc2c(-c3nc(N)ncc3F)cn(C3CN(CC(F)(F)F)C3)c2cn1)C1CC1 (centres unmarked) [Compound 145] | 140 |  |  |  | 340 | 260 | 
28 | CC(O)(C#Cc1cc2c(-c3nc(N)ncc3F)cn(C3CN(CC4CCCC4)C3)c2cn1)C1CC1 (centres unmarked) [Compound 146] | 200 |  |  |  | 580 | 450 | 
29 | CCCCC(=O)NCCCn1cc(-c2ccnc(N)n2)c2cc(C#CC(C)(C)O)ncc21 [Compound 147] | 130 |  |  |  | 530 | 1400 | 
30 | CC(=O)NCCCn1cc(-c2ccnc(N)n2)c2cc(C#CC(C)(C)O)ncc21 [Compound 148] | 64 |  |  |  | 7600 | 9100 | 
31 | COc1cnc(N)nc1-c1cn(C(C)C)c2cnc(C#CC(C)(O)C3CC3)cc12 (centres unmarked) [Compound 149] | 22 |  |  |  | 22 | 38 | 
32 | CC(C)n1cc(-c2nc(N)ncc2F)c2cc(C#CC3(O)CCN(C)C3=O)ncc21 (centres unmarked) [Compound 150] | 210 |  |  |  | 1500 | 1600 | 
33 | CC(C)(O)C#Cc1cc2c(-c3nc(N)ncc3F)cn(C3CCN(CCF)C3)c2cn1 (centres unmarked) [Compound 151] | 54 |  |  |  | 45 | 46 | 
34 | CC(O)(C#Cc1cc2c(-c3nc(N)ncc3F)cn(C3CCN(CCC(F)(F)F)C3)c2cn1)C1CC1 (centres unmarked) [Compound 152] | 47 |  |  |  | 75 | 48 | 
35 | CC(O)(C#Cc1cc2c(-c3nc(N)ncc3F)cn(C3CCN(CCF)C3)c2cn1)C1CC1 (centres unmarked) [Compound 153] | 74 |  |  |  | 150 | 130 | 
36 | CC(=O)N1CC(n2cc(-c3nc(N)ncc3F)c3cc(C#CC(C)(O)C4CC4)ncc32)C1 (centres unmarked) [Compound 154] | 190 |  |  |  | 2800 | 4700 | 
37 | COCCN1CC(n2cc(-c3nc(N)ncc3F)c3cc(C#CC(C)(O)C4CC4)ncc32)C1 (centres unmarked) [Compound 155] | 140 |  |  |  | 380 | 400 | 
38 | COCCCN1CC(n2cc(-c3nc(N)ncc3F)c3cc(C#CC(C)(O)C4CC4)ncc32)C1 (centres unmarked) [Compound 156] | 190 |  |  |  | 360 | 320 | 

Source: US9643964B2, “3-(2-aminopyrimidin-4-yl)-5-(3-hydroxypropynyl)-1H-pyrrolo[2,3-C]pyridine derivatives as NIK inhibitors for the treatment of cancer” (Janssen Pharmaceutica NV, priority 2013, dated 2017)
